Experimental data published in PMC6385122, “Design and Synthesis of Arylamidine Derivatives as Serotonin/Norepinephrine Dual Reuptake Inhibitors” (Molecules, 2019).
Structures can show the parent of a compound that is named as a salt.

Columns and labels:
[1] = target: T1, 5-HT reuptake (5-HT transporter) (Rattus norvegicus, UniProt P31652); assay: Inhibition of 5-HT reuptake in rat brain synaptosome (3H-5-HT uptake); assay type: biochemical; settings: 10 μM, read-out: 5-HT reuptake percent inhibition
T1 construct: from tissue; host or cells: Wistar rat brain (procerebrum; crude synaptosomal supernatant)
T1 sequence (P31652 whole entry): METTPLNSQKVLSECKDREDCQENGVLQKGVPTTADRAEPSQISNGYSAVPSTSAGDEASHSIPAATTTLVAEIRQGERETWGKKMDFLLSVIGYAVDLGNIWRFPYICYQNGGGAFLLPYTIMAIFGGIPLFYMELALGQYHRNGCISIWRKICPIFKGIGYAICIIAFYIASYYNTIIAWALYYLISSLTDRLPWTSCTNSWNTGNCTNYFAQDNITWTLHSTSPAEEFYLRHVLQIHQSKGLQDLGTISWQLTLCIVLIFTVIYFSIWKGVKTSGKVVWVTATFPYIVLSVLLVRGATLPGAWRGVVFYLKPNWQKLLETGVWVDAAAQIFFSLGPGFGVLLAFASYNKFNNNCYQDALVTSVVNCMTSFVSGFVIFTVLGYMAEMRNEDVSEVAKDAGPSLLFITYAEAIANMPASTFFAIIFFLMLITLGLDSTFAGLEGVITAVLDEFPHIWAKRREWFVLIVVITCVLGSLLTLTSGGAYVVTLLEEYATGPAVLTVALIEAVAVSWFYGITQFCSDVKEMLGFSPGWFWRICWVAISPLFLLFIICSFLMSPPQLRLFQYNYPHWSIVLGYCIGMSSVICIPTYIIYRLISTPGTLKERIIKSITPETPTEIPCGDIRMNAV
Experimental: (§1) All the target compounds were evaluated for their inhibitory activity against the reuptake of 5-HT and NE at the cellular level. Rat brain tissue was used for the uptake test, which included ^3H-5-HT and ^3H-NE [15]. 1-[7,8-^3H]-Noradrenaline and 5-hydroxy-[^3H]-tryptamine trifluoroacetate were obtained from Amersham Corporation.
(§2) Adult male Wistar rats were used. Animals were killed by decapitation and the whole brain, with the exception of the brainstem and cerebellum, was quickly removed. The procerebrum region was prepared, weighed, and homogenized in 10 volumes of ice-cold 0.32 mol/L sucrose solution using a glass homogenizer. The homogenate was centrifuged at 1000× g and 4 °C for 10 min. The supernatant was decanted and used for the uptake experiments. […] For each assay, three tubes were incubated with the vehicle (20 µL) at 0 °C in an ice bath. After incubation, the tubes were immediately filtered with a cell harvester. The fiberglass filter membrane was washed three times with ice-cold saline, placed in a scintillation vial, and counted in liquid scintillation cocktail (4 mL). Active uptake was the difference between the counts per minute at 37 and 0 °C. The percent inhibition at each drug concentration was the mean of three measurements.

[2] = target: T2, NE reuptake (NE transporter) (Rattus norvegicus, UniProt Q63380); assay: Inhibition of NE reuptake in rat brain synaptosome (3H-NE uptake); assay type: biochemical; settings: 10 μM, read-out: NE reuptake percent inhibition
T2 construct: from tissue; host or cells: Wistar rat brain (procerebrum; crude synaptosomal supernatant)
T2 sequence (Q63380 1-617): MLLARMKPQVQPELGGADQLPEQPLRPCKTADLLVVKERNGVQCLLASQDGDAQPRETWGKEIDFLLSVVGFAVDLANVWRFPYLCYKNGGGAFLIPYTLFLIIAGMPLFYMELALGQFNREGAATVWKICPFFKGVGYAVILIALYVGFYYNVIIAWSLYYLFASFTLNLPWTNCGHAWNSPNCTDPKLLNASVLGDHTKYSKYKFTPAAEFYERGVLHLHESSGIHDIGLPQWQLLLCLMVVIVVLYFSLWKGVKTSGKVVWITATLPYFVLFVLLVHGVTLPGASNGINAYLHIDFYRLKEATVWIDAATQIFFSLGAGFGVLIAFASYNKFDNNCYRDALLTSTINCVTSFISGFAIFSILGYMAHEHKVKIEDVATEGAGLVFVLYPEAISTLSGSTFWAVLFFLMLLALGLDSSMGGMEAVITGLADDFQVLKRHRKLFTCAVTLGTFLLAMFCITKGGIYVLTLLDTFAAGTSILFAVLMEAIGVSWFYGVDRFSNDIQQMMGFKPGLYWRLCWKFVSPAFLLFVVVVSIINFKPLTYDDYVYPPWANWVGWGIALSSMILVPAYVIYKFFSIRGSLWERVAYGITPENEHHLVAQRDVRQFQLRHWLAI
Experimental: as §1, §2

Row | SMILES | melting point [°C] | inhibition at 10 µM [1] [%] | inhibition at 10 µM [2] [%]
1 | O=[N+]([O-])c1ccc(/C(=N\Cc2ccccc2)N2CCNCC2)cc1 (as salt: hydrochloride) [Compound I-2, (E)-N-((4-Nitrophenyl)(piperazin-1-yl)methylene)-1-phenylmethanaminehydrochloride] | 230 to 231 |  | 
2 | Clc1ccccc1/C(=N\Cc1ccccc1)N1CCNCC1 (as salt: hydrochloride) [Compound I-3, (E)-N-((2-Chlorophenyl)(piperazin-1-yl)methylene)-1-phenylmethanaminehydrochloride] | 142 to 144 |  | 
3 | Clc1cccc(/C(=N\Cc2ccccc2)N2CCNCC2)c1 (as salt: hydrochloride) [Compound I-4, (E)-N-((3-Chlorophenyl)(piperazin-1-yl)methylene)-1-phenylmethanaminehydrochloride] | 235 to 237 |  | 
4 | Clc1ccc(/C(=N\Cc2ccccc2)N2CCNCC2)cc1 (as salt: hydrochloride) [Compound I-5, (E)-N-((4-Chlorophenyl)(piperazin-1-yl)methylene)-1-phenylmethanaminehydrochloride] | 182 to 184 |  | 
5 | Fc1ccc(/C(=N\Cc2ccccc2)N2CCNCC2)cc1 (as salt: hydrochloride) [Compound I-6, (E)-N-((4-Fluorophenyl)(piperazin-1-yl)methylene)-1-phenylmethanaminehydrochloride] | 220 to 222 |  | 
6 | O=[N+]([O-])c1ccc(/C(=N\Cc2ccccc2)N2CCNCC2)cc1 [Compound I-2, (E)-N-((4-Nitrophenyl)(piperazin-1-yl)methylene)-1-phenylmethanaminehydrochloride] |  | 38 | 66
7 | Clc1ccccc1/C(=N\Cc1ccccc1)N1CCNCC1 [Compound I-3, (E)-N-((2-Chlorophenyl)(piperazin-1-yl)methylene)-1-phenylmethanaminehydrochloride] |  | 48 | 65
8 | Clc1cccc(/C(=N\Cc2ccccc2)N2CCNCC2)c1 [Compound I-4, (E)-N-((3-Chlorophenyl)(piperazin-1-yl)methylene)-1-phenylmethanaminehydrochloride] |  | 58 | 63
9 | Clc1ccc(/C(=N\Cc2ccccc2)N2CCNCC2)cc1 [Compound I-5, (E)-N-((4-Chlorophenyl)(piperazin-1-yl)methylene)-1-phenylmethanaminehydrochloride] |  | 47 | 57
10 | Fc1ccc(/C(=N\Cc2ccccc2)N2CCNCC2)cc1 [Compound I-6, (E)-N-((4-Fluorophenyl)(piperazin-1-yl)methylene)-1-phenylmethanaminehydrochloride] |  | 17 | 39
11 | Fc1ccccc1/C(=N\Cc1ccccc1)N1CCNCC1 [Compound I-7, (E)-N-((2-Fluorophenyl)(piperazin-1-yl)methylene)-1-phenylmethanaminehydrochloride] |  | 38 | 35
12 | N#Cc1ccc(/C(=N\Cc2ccccc2)N2CCNCC2)cc1 [Compound I-8, (E)-4-((Benzylimino)(piperazin-1-yl)methyl)benzonitrilehydrochloride] |  | 54 | 67
13 | N#Cc1cccc(/C(=N\Cc2ccccc2)N2CCNCC2)c1 [Compound I-9, (E)-3-((Benzylimino)(piperazin-1-yl)methyl)benzonitrilehydrochloride] |  | 65 | 51
14 | Cc1ccc(/C(=N\Cc2ccccc2)N2CCNCC2)cc1 [Compound I-10, (E)-1-Phenyl-N-(piperazin-1-yl(p-tolyl)methylene)methanaminehydrochloride] |  | 61 | 47
15 | O=[N+]([O-])c1ccc(/C(=N\Cc2ccccc2)N2CCNCC2)c(Cl)c1 [Compound I-11, (E)-N-((2-Chloro-4-nitrophenyl)(piperazin-1-yl)methylene)-1-phenylmethanaminehydrochloride] |  | 50 | 49
16 | O=[N+]([O-])c1ccc(/C(=N\Cc2ccc(Cl)cc2)N2CCNCC2)cc1 [Compound I-12, (E)-1-(4-Chlorophenyl)-N-((4-nitrophenyl)(piperazin-1-yl)methylene)methanaminehydrochloride] |  | 51 | 81
17 | Clc1ccc(C/N=C(\c2ccccc2Cl)N2CCNCC2)cc1 [Compound I-13, (E)-1-(4-Chlorophenyl)-N-((2-chlorophenyl)(piperazin-1-yl)methylene)methanaminehydrochloride] |  | 67 | 84
18 | Clc1ccc(C/N=C(\c2cccc(Cl)c2)N2CCNCC2)cc1 [Compound I-14, (E)-1-(4-Chlorophenyl)-N-((3-chlorophenyl)(piperazin-1-yl)methylene)methanaminehydrochloride] |  | 76 | 60
19 | Clc1ccc(C/N=C(\c2ccc(Cl)cc2)N2CCNCC2)cc1 [Compound I-15, (E)-1-(4-Chlorophenyl)-N-((4-chlorophenyl)(piperazin-1-yl)methylene)methanaminehydrochloride] |  | 48 | 68
20 | Fc1ccc(/C(=N\Cc2ccc(Cl)cc2)N2CCNCC2)cc1 [Compound I-16, (E)-1-(4-Chlorophenyl)-N-((4-fluorophenyl)(piperazin-1-yl)methylene)methanaminehydrochloride] |  | 45 | 26
21 | Fc1ccccc1/C(=N\Cc1ccc(Cl)cc1)N1CCNCC1 [Compound I-17, (E)-1-(4-Chlorophenyl)-N-((2-fluorophenyl)(piperazin-1-yl)methylene)methanaminehydrochloride] |  | 43 | 27
22 | N#Cc1ccc(/C(=N\Cc2ccc(Cl)cc2)N2CCNCC2)cc1 [Compound I-18, (E)-1-(4-Chlorophenyl)-N-((4-cyanophenyl)(piperazin-1-yl)methylene)methanaminehydrochloride] |  | 75 | 63
23 | Cc1ccc(/C(=N\Cc2ccc(Cl)cc2)N2CCNCC2)cc1 [Compound I-20, (E)-1-(4-Chlorophenyl)-N-(piperazin-1-yl(p-tolyl)methylene)methanaminehydrochloride] |  | 72 | 35
24 | COc1ccc(C/N=C(\c2ccc([N+](=O)[O-])cc2)N2CCNCC2)cc1 [Compound I-21, (E)-1-(4-Methoxyphenyl)-N-((4-nitrophenyl)(piperazin-1-yl)methylene)methanaminehydrochloride] |  | 34 | 57

Now from value to compound:

Row | melting point [°C] | inhibition at 10 µM [1] [%] | inhibition at 10 µM [2] [%] | SMILES
25 |  | 80 | 67 | c1ccc(/C(=N\Cc2cccc3ccccc23)N2CCNCC2)cc1 [II-1, (E)-1-(Naphthalen-1-yl)-N-(phenyl(piperazin-1-yl)methylene)methanaminehydrochloride]
26 |  | 57 | 52 | O=[N+]([O-])c1ccc(/C(=N\Cc2cccc3ccccc23)N2CCNCC2)cc1 [II-2, (E)-1-(Naphthalen-1-yl)-N-((4-nitrophenyl)(piperazin-1-yl)methylene)methanaminehydrochloride]
27 |  | 84 | 76 | Fc1ccc(/C(=N\Cc2cccc3ccccc23)N2CCNCC2)cc1 [II-3, (E)-N-((4-Fluorophenyl)(piperazin-1-yl)methylene)-1-(naphthalen-1-yl)methanaminehydrochloride]
28 |  | 65 | 75 | Clc1cccc(/C(=N\Cc2cccc3ccccc23)N2CCNCC2)c1 [II-6, (E)-N-((3-Chlorophenyl)(piperazin-1-yl)methylene)-1-(naphthalen-1-yl)methanaminehydrochloride]
29 |  | 62 | 59 | Clc1ccc(/C(=N\Cc2cccc3ccccc23)N2CCNCC2)cc1 [II-7, (E)-N-((4-Chlorophenyl)(piperazin-1-yl)methylene)-1-(naphthalen-1-yl)methanaminehydrochloride]
30 |  | 70 | 46 | N#Cc1ccc(/C(=N\Cc2cccc3ccccc23)N2CCNCC2)cc1 [II-8, (E)-4-(((Naphthalen-1-ylmethyl)imino)(piperazin-1-yl)methyl)benzonitrilehydrochloride]
31 |  | 88 | 54 | N#Cc1cccc(/C(=N\Cc2cccc3ccccc23)N2CCNCC2)c1 [II-9, (E)-3-(((Naphthalen-1-ylmethyl)imino)(piperazin-1-yl)methyl)benzonitrilehydrochloride]
32 |  | 82 | 63 | Cc1ccc(/C(=N\Cc2cccc3ccccc23)N2CCNCC2)cc1 [II-10, (E)-1-(Naphthalen-1-yl)-N-(piperazin-1-yl(p-tolyl)methylene)methanaminehydrochloride]
33 |  | 73 | 66 | O=[N+]([O-])c1cccc2c(/C(=N\Cc3ccccc3)N3CCNCC3)cccc12 [III-1, (E)-N-((5-Nitronaphthalen-1-yl)(piperazin-1-yl)methylene)-1-phenylmethanaminehydrochloride]
